Patent publication EP0745595A1, “3-(3-Aryloxyphenyl)-1-(substituted methyl)-s-triazine-2,4,6-oxo or thiotrione herbicidal agents” (American Cyanamid Company, priority 1995, dated 1996)

Columns and labels:
Type in all cases: in vivo
[1] = test system: ECHINOCHLOA CRUS-GALLI, (L) BEAU; experiment: Preemergence herbicidal evaluation, ECHCG (Barnyardgrass); conditions: four to five weeks after treatment
Procedure, shortened: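 In this preemergence herbicide test, cups holding seeds of ECHCG sown in potting soil over roughly one inch of soil were treated and then grown under conventional greenhouse care. Tests were ended four to five weeks after treatment, and injury was scored 0-9 from stand, vigor, malformation, size, chlorosis and overall appearance relative to a control.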

SAGITTARIA PYGMAEA, L. = experiment: Preemergence weed control under flooded paddy conditions, SAGPY (Arrowhead (Pygmaea)); conditions: preemergence weeds, rated three to four weeks after treatment
Procedure, shortened: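 In undrained pots of silt loam flooded to 1.5-3 cm, compounds are pipetted into the water before emergence at the equivalent of about 0.5, 0.25, 0.125 and 0.063 kg/ha. Plants are scored 0-9 for stand, vigor, malformation, size and chlorosis at test end (3-4 weeks).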

[2] = test system: AMBROSIA ARTEMISIIFOLIA, L.; experiment: Preemergence herbicidal evaluation, AMBEL (Ragweed, Common); conditions: four to five weeks after treatment
Procedure, shortened: (§1)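 Injury scored visually (0–9; stand, vigor, malformation, size, chlorosis) versus untreated control, four to five weeks post-treatment. Application: aqueous acetone spray onto freshly planted soil cups, equivalent to about 0.125 to 0.50 kg/ha, plants then kept under standard greenhouse care.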

CHENOPODIUM ALBUM, L. [3] = experiment: Postemergence herbicidal evaluation, CHEAL (Lambsquarters, Common); conditions: rated four to five weeks after treatment, averaged
Procedure, shortened: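 Postemergence herbicidal activity on Chenopodium album was tested by spraying two-week-old seedlings grown in jiffy flats with compound in acetone/water (50/50) plus 0.5% TWEEN®20, using a 40 psi nozzle. Four to five weeks after treatment, stand, vigor, malformation, size, chlorosis and overall appearance were scored 0-9 relative to controls, with repeat tests averaged.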

[4] = test system: ORYZA SATIVA, L. TEBONNET; experiment: Preemergence herbicidal evaluation, ORYSAT (Rice, Tebonnet); conditions: four to five weeks after treatment
Procedure, shortened: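 Preemergence herbicidal activity on Tebonnet rice was assessed using pint cups of seeded potting soil kept under conventional greenhouse care after treatment. Tests ended four to five weeks later. Each cup received a 0-9 rating from visual comparison with a control covering stand, vigor, malformation, size, chlorosis and overall appearance.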

CHENOPODIUM ALBUM, L. [5] = experiment: Preemergence herbicidal evaluation, CHEAL (Lambsquarters, Common); conditions: four to five weeks after treatment
Procedure, shortened: as §1

[6] = test system: ORYZA SATIVA, L. TEBONNET; experiment: Rice tolerance to post-transplant applications under flooded paddy conditions, ORYSAT (Rice, Tebonnet); conditions: post-transplant rice, rated three to four weeks after treatment;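 note: applied to flooded soil surface three days after transplanting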
Procedure, shortened: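 Greenhouse pots of silt loam, each with two transplanted ten-day-old seedlings, are held under 1.5 to 3 cm of standing water. Three days later the compound is applied to the flooded surface at about 0.5, 0.25, 0.125 or 0.063 kg/ha. Damage is scored visually 0-9 after 3-4 weeks.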

ZEA MAYS L. = experiment: Preemergence herbicidal evaluation, ZEAMX (Corn, Field); conditions: four to five weeks after treatment
Procedure, shortened: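 Preemergence herbicidal activity on field corn: seeds in potting soil were sown atop roughly one inch of soil in separate pint cups, treated, and grown under standard greenhouse care. Four to five weeks post-treatment, stand, vigor, malformation, size, chlorosis and overall appearance were compared with a control and scored 0-9.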

[7] = test system: ABUTILON THEOPHRASTI, MEDIC.; experiment: Preemergence herbicidal evaluation, ABUTH (Velvetleaf); conditions: four to five weeks after treatment
Procedure, shortened: as §1

[8] = test system: SETARIA VIRIDIS, (L) BEAU; experiment: Preemergence herbicidal evaluation, SETVI (Foxtail, Green); conditions: four to five weeks after treatment
From the text: Results of herbicide evaluation are expressed on a rating scale (0-9). The scale is based upon a visual observation of plant stand, vigor, malformation, size, chlorosis and overall plant appearance as compared with a control.
The preemergence herbicidal activity of the test compounds of the present invention is exemplified by the following tests in which the seeds of a variety of monocotyledonous and dicotyledonous plants are separately mixed with potting soil and planted on top of approximately one inch of soil in separate pint cups. […] The treated cups are then placed on greenhouse benches, watered and cared for in accordance with conventional greenhouse procedures. From four to five weeks after treatment, the tests are terminated and each cup is examined and rated according to the rating system provided in Example 40.
The compounds evaluated are reported by compound number given in Example 40.

[9] = test system: GLYCINE MAX(L) MERR. CV. WILLIAMS; experiment: Preemergence herbicidal evaluation, GLXMAW (Soybean, Williams); conditions: four to five weeks after treatment
Procedure, shortened: as §1

IPOMOEA SPP. = experiment: Preemergence herbicidal evaluation, IPOSS (Morningglory spp.); conditions: four to five weeks after treatment
Procedure, shortened: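 This preemergence greenhouse test scored herbicidal effect on morningglory planted in pint cups, with seed mixed into potting soil and placed over about one inch of soil. After treatment the cups were watered and kept under conventional care. At four to five weeks, plant stand, vigor, malformation, size, chlorosis and overall appearance were compared with a control and rated 0-9.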

[10] = test system: TRITICUM AESTIVUM, CV. APOLLO; experiment: Preemergence herbicidal evaluation, TRZAWO (Wheat, Winter, CV. APOLLO); conditions: four to five weeks after treatment
Procedure, shortened: as §1

CCOC(=O)Cn1c(=O)n(CC(=O)OC)c(=O)n(-c2cc(Oc3c(F)cc(C(F)(F)F)cc3Cl)ccc2C#N)c1=O [Compound 12, 1-Ethyl methyl 5-{5-[(2-chloro-α,α,α,6-tetrafluoro-p-tolyl)oxy]-2-cyanophenyl}-dihydro-2,4,6-trioxo-s-triazine-1,3(2H,4H)-diacetate]
0.0: ECHCG rating ([1]; Rate 0.125 kg/ha) | ECHCG rating ([1]; Rate 0.250 kg/ha) | ECHCG rating ([1]; Rate 0.500 kg/ha) | SAGPY herbicidal rating (SAGITTARIA PYGMAEA, L.; Rate 0.063 kg/ha) | SAGPY herbicidal rating (SAGITTARIA PYGMAEA, L.; Rate 0.125 kg/ha) | SAGPY herbicidal rating (SAGITTARIA PYGMAEA, L.; Rate 0.250 kg/ha) | SAGPY herbicidal rating (SAGITTARIA PYGMAEA, L.; Rate 0.500 kg/ha) | AMBEL rating ([2]; Rate 0.125 kg/ha) | AMBEL rating ([2]; Rate 0.250 kg/ha) | AMBEL rating ([2]; Rate 0.500 kg/ha) | ORYSAT rating ([4]; Rate 0.125 kg/ha) | ORYSAT rating ([4]; Rate 0.250 kg/ha) | ORYSAT rating ([4]; Rate 0.500 kg/ha) | CHEAL rating (CHENOPODIUM ALBUM, L. [5]; Rate 0.125 kg/ha) | CHEAL rating (CHENOPODIUM ALBUM, L. [5]; Rate 0.250 kg/ha) | CHEAL rating (CHENOPODIUM ALBUM, L. [5]; Rate 0.500 kg/ha) | ORYSAT herbicidal rating (rice tolerance) ([6]; Rate 0.063 kg/ha) | ORYSAT herbicidal rating (rice tolerance) ([6]; Rate 0.125 kg/ha) | ORYSAT herbicidal rating (rice tolerance) ([6]; Rate 0.250 kg/ha) | ZEAMX rating (ZEA MAYS L.; Rate 0.125 kg/ha) | ZEAMX rating (ZEA MAYS L.; Rate 0.250 kg/ha) | ZEAMX rating (ZEA MAYS L.; Rate 0.500 kg/ha) | ABUTH rating ([7]; Rate 0.125 kg/ha) | ABUTH rating ([7]; Rate 0.250 kg/ha) | ABUTH rating ([7]; Rate 0.500 kg/ha) | SETVI rating ([8]; Rate 0.125 kg/ha) | SETVI rating ([8]; Rate 0.250 kg/ha) | SETVI rating ([8]; Rate 0.500 kg/ha) | GLXMAW rating ([9]; Rate 0.125 kg/ha) | GLXMAW rating ([9]; Rate 0.250 kg/ha) | GLXMAW rating ([9]; Rate 0.500 kg/ha) | IPOSS rating (IPOMOEA SPP.; Rate 0.125 kg/ha) | IPOSS rating (IPOMOEA SPP.; Rate 0.250 kg/ha) | IPOSS rating (IPOMOEA SPP.; Rate 0.500 kg/ha) | TRZAWO rating ([10]; Rate 0.125 kg/ha) | TRZAWO rating ([10]; Rate 0.250 kg/ha) | TRZAWO rating ([10]; Rate 0.500 kg/ha)
9.0: CHEAL, herbicide rating (0-9) (CHENOPODIUM ALBUM, L. [3]; Rate 0.125 kg/ha) | CHEAL, herbicide rating (0-9) (CHENOPODIUM ALBUM, L. [3]; Rate 0.250 kg/ha) | CHEAL, herbicide rating (0-9) (CHENOPODIUM ALBUM, L. [3]; Rate 0.500 kg/ha)
1.0: ORYSAT herbicidal rating (rice tolerance) ([6]; Rate 0.500 kg/ha)
